Tests used:
[1] = tested on: Plasmopara viticola (vine downy mildew); test: glasshouse foliar spray test, vine downy mildew; assay type: in vivo
[2] = simulated sunlight photostability test, thin films on glass slides; assay type: physicochemical; settings: for T50 glass slides / time for 50% of parent compound being lost: thin films on glass slides
[3] = target: cytochrome bc1 complex (beef heart mitochondria, NADH oxidase) (Bos taurus, UniProt P00157+P13272); test: beef heart mitochondrial NADH oxidase assay; assay type: biochemical; settings: for IC50, NADH oxidase: beef heart mitochondria, Z-enamide analogues, Table 5
several fungi = settings: cited from earlier work
[4] = tested on: electron transport chain at complex III; settings: beef heart mitochondrial respiration assay; cited from earlier work
plant pathogens = test: fungicidal activity on plants; assay type: in vivo

## COC(=O)COc1ccc2oc(=O)n(Cc3ccc(Cc4ccc(I)cc4)cc3)c2c1 [Compound 19]
[1]
  activity on vine downy mildew on plants: no activity

## CCOc1ccc(Cc2ccc(C(=O)N/C=C\CCCC(=O)NCC(=O)OC)cc2)cc1 [Compound 15]
[2]
  photostability: greater photostability than the natural product
  T50 glass slides: 20 h

## CCc1ccc(Cc2ccc(Cn3c(=O)oc4ccc(NCC(=O)OC)cc43)cc2)cc1 [Compound 21]
[3]
  IC50, NADH oxidase: Inactive

## COC(=O)CNC(=O)CCC/C=C\NC(=O)/C=C(C)/C=C/[C@H](C)[C@H](OC)[C@H](C)[C@H](/C=C/c1ccccc1)OC [Compound 11, crocacin D, reference compound]
[2]
  T50 glass slides: 0.6 h
  time for 50% of parent compound being lost: 37 min
Several fungi
  inhibition of growth of fungi in vitro: inhibited the growth of several fungi in vitro
[4]
  inhibition of the electron transport chain at complex III: inhibited the electron transport chain at complex III
[3]
  activity in the NADH oxidase / beef heart mitochondrial respiration assay: slightly more active than crocacin A

## COC(=O)CNC(=O)/C=C\C/C=C\NC(=O)/C=C(C)/C=C/[C@H](C)[C@H](OC)[C@H](C)[C@H](/C=C/c1ccccc1)OC [Compound 8, crocacin A]
[2]
  time for 50% of parent compound being lost: 7 min
Several fungi
  inhibition of growth of fungi in vitro: inhibited the growth of several fungi in vitro
[4]
  inhibition of the electron transport chain at complex III: inhibited the electron transport chain at complex III

## COC(=O)CNC(=O)CCCc1ccccc1NC(=O)CCCCCCCCCc1ccccc1 [Compound 25]
[3]
  activity in the NADH oxidase / beef heart mitochondrial respiration assay: completely inactive
  IC50, NADH oxidase: Inactive

## CCc1ccc(Cc2ccc(Cn3c(=O)oc4ccc(OCC(=O)OC)cc43)cc2)cc1 [Compound 18]
[1]
  activity on vine downy mildew on plants: no activity

## CCCCCCCCCCCCC(=O)N/C=C\CCCC(=O)NCC(=O)OC [Compound 12]
[2]
  photostability: photostability was unexpectedly reduced
  T50 glass slides: 0.1 h
Plant pathogens
  fungicidal activity on plants: no fungicidal activity
[3]
  activity in the NADH oxidase / beef heart mitochondrial respiration assay: very active

## CCCCCCOc1ccc(C(=O)N/C=C\CCCC(=O)NCC(=O)OC)cc1 [Compound 13]
[2]
  T50 glass slides: 5 h
Plant pathogens
  fungicidal activity on plants: inactive as fungicides
[3]
  activity in the NADH oxidase / beef heart mitochondrial respiration assay: very good activity

## COC(=O)CNC(=O)CCC/C=C\NC(=O)c1ccc(Cc2ccc(Br)cc2)cc1 [Compound 14]
[2]
  photostability: greater photostability than the natural product
  T50 glass slides: 12 h

## C/C=C(C)/C=C/C=C/[C@H](OC)[C@@H](C)[C@@H](OC)[C@@H](C)CCc1oc2c(O)c(OC)cc(OC)c2c(=O)c1C [Compound 2, stigmatellin, reference compound]
Plant pathogens
  fungicidal activity on plants: very little fungicidal activity
[3]
  activity in the NADH oxidase / beef heart mitochondrial respiration assay: quite active

## CO[C@H]([C@H](C)[C@H](/C=C/c1ccccc1)OC)[C@@H](C)/C=C/C(C)=C/C(=O)N/C=C\C/C=C\C(=O)NCC(=O)O [Compound 9, crocacin B]
[4]
  inhibition of the electron transport chain at complex III: not to be active

## CO[C@H]([C@H](C)[C@H](/C=C/c1ccccc1)OC)[C@@H](C)/C=C/C(C)=C/C(N)=O [Compound 10, crocacin C]
[4]
  inhibition of the electron transport chain at complex III: not to be active

## CCc1ccc(Oc2ccc(C(=O)N[C@H]3C[C@H]3CCC(=O)NCC(=O)OC)cc2)cc1 [Compound 24]
[3]
  activity in the NADH oxidase / beef heart mitochondrial respiration assay: only very weakly active
